“Also recorded” adds a separate entry of the source. Where a SMILES comes first, the peptide text is derived from it. [ ]: non-standard residue; d: D form. dPhe(4-Cl) = N[C@H](Cc1ccc(Cl)cc1)C(=O)O; d2Nal = N[C@H](Cc1ccc2ccccc2c1)C(=O)O; dCit = NC(=O)NCCC[C@@H](N)C(=O)O; d3Pal = N[C@H](Cc1cccnc1)C(=O)O
Assays:
[1] = test system: pituitary / follicular growth; experiment: Animal experiments and clinical studies with Cetrorelix (unstimulated follicular growth, pituitary responsiveness); format: in vivo
Text: These low dosage levels present new possibilities for manipulating the time of ovulation during a normal, not exogenous gonadotropin-stimulated cycle, without affecting the viability of the growing follicle. In case of inadequate follicular growth related to treatment with LHRH-antagonists, low dose and short term administration of gonadotrophin or other trophic compounds will compensate for these effects. Subsequently, by stopping the LHRH-antagonist treatment, it is possible to let the normal ovulation occur or to induce ovulation by exogenous manipulation, if necessary. Ovulation induction was induced by the administration of standard HCG or by administration of LHRH and/or LHRH agonistic analogs. These described treatment alternatives are a departure from existing protocols, since they are possible only if preceded by treatment for LH-surge-control with an LHRH-antagonist. In animal and clinical studies with Cetrorelix it was shown that the responsiveness of the pituitary to LHRH or agonistic analogs is preserved under these conditions of treatment. Without this treatment, the pituitary cannot respond after agonistic pretreatment for LH-surge control due to receptor down-regulation. In addition, the possible use of ovulation inducing agents other than HCG results in a-reduced incidence of ovarian hyperstimulation syndrome.

[2] = test system: patients undergoing COH for IVF/ICSI; experiment: Cetrorelix combined with clomifen citrate and gonadotrophins for hormonal stimulation (COH) for IVF/ICSI; format: in vivo; details: for fertilization rate: ICSI
Description: Combination of the GnRH antagonist Cetrorelix, clomifen citrate(CC) and gonadotrophins for hormonal stimulation for IVF/ICSI. COH was started on day 2 after spontaneous menstrual bleeding using 100 mg CC per day for 5 or 7 days. The antagonist Cetrorelix (0.25 mg s.c.) was given starting on stimulation day 6 combined with either urinary hMG or recombinant FSH (3 ampoules/d) in a prospective randomized way. After two days of gonadotrophin injection, the dose was individualized. Human chorionic gonadotropin was given for ovulation induction, if at least 3 follicles were ≧17 mm in diameter. In total, 30 patients were included in the study. 15 were randomized in each group. Intra cytoplasmatic sperm injection (ICSI) was applied in each case.

premature LH surges = details: short term treatment; cited from earlier work
[3] = test system: patients undergoing COS/ART; experiment: Phase II clinical trial of Cetrorelix in controlled ovarian stimulation (COS/ART); format: in vivo
Description: The results of a phase II clinical trial are shown in Table I. A total of […] patients were treated. […] During multiple dosing, the mean days of Cetrorelix application is 6 days. 25 babies were born by the end of May 1996 (7 following multiple doses; 18 following single/dual doses). 238 patients were treated with Cetrorelix by subcutaneous injection of Cetrorelix […]-Lyophilisat. 134 patients were treated with multiple doses and 104 patients with single or dual doses. The multiple doses are 0.25 mg/day or higher. The single dose was 3 mg or higher. […]

[4] = all phase II patients, both regimens
[5] = multiple dosing, 3-7/14 days, phase II dose finding
[6] = single dose (1 day), phase II dose finding

Compound: CC(=O)N[C@H](Cc1ccc2ccccc2c1)C(=O)N[C@H](Cc1ccc(Cl)cc1)C(=O)N[C@H](Cc1cccnc1)C(=O)N[C@@H](CO)C(=O)N[C@@H](Cc1ccc(O)cc1)C(=O)N[C@H](CCCNC(N)=O)C(=O)N[C@@H](CC(C)C)C(=O)N[C@@H](CCCNC(=N)N)C(=O)N1CCC[C@H]1C(=O)N[C@H](C)C(N)=O [Cetrorelix] (Ac-[d2Nal][dPhe(4-Cl)][d3Pal]SY[dCit]LRP[dA]-NH2)
- effect on normal, unstimulated follicular growth ([1]; multiple or single injections, extremely low dosage levels): arrest of the normal, unstimulated follicular growth
- responsiveness of the pituitary to LHRH or agonistic analogs ([1]; under treatment for LH-surge control): preserved
- ovarian hyperstimulation syndrome (OHSS) ([2]; both groups, 30 patients): No case
- oocytes retrieved per cycle ([2]; hMG group): 7.7±3.8
- fertilization rate ([2]; hMG group): 42%
- oocytes retrieved per cycle ([2]; recombinant FSH group): 6.4±2.6
- fertilization rate ([2]; recombinant FSH group): 53%
- premature LH surges during stimulated cycles (premature LH surges): complete avoidance of premature LH surges
- FSH secretion ([3]; FIG. 1): maintained at a natural level
- individual estrogen development ([3]; FIG. 1): not affected
- pregnancies obtained [3, 4]: 71
- pregnancy rate [3, 4]: 30%
- babies born by the end of May 1996 ([3]; both regimens together): 25
- babies born by the end of May 1996 ([3]; following multiple doses): 7
- babies born by the end of May 1996 ([3]; following single/dual doses): 18
- pregnancy rate ([3]; multiple dose regimen): 28.4%
- pregnancies ([3]; multiple dose regimen, of 134 patients): 38
- premature LH surge ([3]; multiple doses of 0.25 mg or higher or single dose of 3 mg or higher, s.c.): No premature LH surge; also recorded: absolute prevention of any premature LH surge
- min. effective dose (Dose/Day) [3, 5]: 0.25 min. effect, dose mg
- no effect dose (Dose/Day) [3, 5]: 0.10 no effect. dose mg
- min. effective dose [3, 6]: 3 min. effective dose mg
- no effect dose [3, 6]: 2 no effect. Dose mg
- duration of effect to prevent a premature LH surge ([3]; single dose regimen): up to 6.5 days
- pregnancy rate ([3]; single/dual dosage regimen): 31.7%
- pregnancies ([3]; single/dual dosage regimen, of 104 patients): 33
